This note sets out measurements from article PMC2882596 (Journal of the American Chemical Society, 2010).

One experiment has as its system Staph aureus strains. Kind of experiment: Antibiotic potency of wild type thiocillin variants. In kind it is cell-based, Staphylococcus aureus. Particulars: wild type scaffold variants, equivalent potency.
The next experiment deals with Bacillus subtilus 168. Kind of experiment: MIC, serial dilution liquid culture, overnight in 96-well plates. In kind it is cell-based, Bacillus subtilis. The note with it: wild type scaffold variants, equivalent potency.

Consider YM-266183, for which the “antibiotic potency against Staph aureus strains” value with Staph aureus strains is “submicromolar”. For the same substance, the “antibiotic potency against B subtilis” value in the experiment with Bacillus subtilus 168 is reported as “submicromolar”.
In the case of Thiocillin I, the “antibiotic potency against Staph aureus strains” value in the experiment with Staph aureus strains is “submicromolar”. Also, the “antibiotic potency against B subtilis” value in the experiment on Bacillus subtilus 168 is “submicromolar”.
For Micrococcin P2, the “antibiotic potency against Staph aureus strains” value in the experiment on Staph aureus strains was “submicromolar”. In the experiment with Bacillus subtilus 168, the “antibiotic potency against B subtilis” value is “submicromolar”.
With Micrococcin P1, in the experiment with Staph aureus strains, the “antibiotic potency against Staph aureus strains” value is “submicromolar”. Besides, the “antibiotic potency against B subtilis” value in the experiment on Bacillus subtilus 168 is on record as “submicromolar”.
